Assay results: patent US20100316590A1, “COMPOSITIONS AND METHODS RELATED TO POLOXAMER COPOLYMER MEMBRANE SEALANT” (THE BOARD OF REGENTS OF THE UNIVERSITY OF TEXAS SYSTEM, priority 2009, published 2010)

Test system: SH-SY5Y human neuroblastoma cells

| Substance | reduction in cell viability of cells treated with P188 alone compared to untreated controls | toxicity of poloxamer on its own to the cells compared to untreated controls |
| --- | --- | --- |
| poloxamer 188 [Poloxamer P188] | not statistically significant |  |
| poloxamer 407 [Poloxamer P407] |  | non-toxic |
